Source: ChEMBL document CHEMBL5380791, “Modular Biomimetic Strategy Enabled Discovery of Simplified Pseudo-Natural Macrocyclic P-Glycoprotein Inhibitors Capable of Overcoming Multidrug Resistance” (J Med Chem, 2023)
pIC50: −log10 of the molar value. Active and inactive are the calls of the source. The calls are words filed in the database; no cut-off is given here.

Legend:
[1] = test system: KBv200; test: Reversal fold, ratio of vinorelbine IC50 for cytotoxicity against human KBv200 cells over test compound IC50 for reversal of vinorelbine resistance in human KBv200 cells; format: functional
[2] = test system: KBv200; test: Reversal of vinorelbine resistance in human KBv200 cells assessed as reduction in cell viability incubated for 72 hrs in presence of vinorelbine (reference value: 224 to 228.30 nM); format: functional, cell-based; conditions: KBv200, 72 h
[3] = test system: KBv200; test: Reversal of adriamycin resistance in human KBv200 cells assessed as reduction in cell viability incubated for 72 hrs in presence of adriamycin (reference value: 1291.2+/-308.9 nM); format: functional, cell-based; conditions: KBv200, 72 h
[4] = test system: NCI/ADR-RES; test: Reversal of vinorelbine resistance in human NCI/ADR-RES cells assessed as reduction in cell viability incubated for 72 hrs in presence of vinorelbine (reference value: 6125.7+/-3267.7 nM); format: functional, cell-based
[5] = test system: K562/Adr; test: Reversal of vinorelbine resistance in human K562/Adr cells assessed as reduction in cell viability incubated for 72 hrs in presence of vinorelbine (reference value: 7320.6+/-2115.2 nM); format: functional, cell-based
[6] = test system: KB; test: Reversal of vinorelbine resistance in human KB cells assessed as reduction in cell viability incubated for 72 hrs in presence of vinorelbine (reference value: 7.4+/-2.2 nM); format: functional, cell-based
[7] = test system: KBv200; test: Reversal of paclitaxel resistance in human KBv200 cells assessed as reduction in cell viability incubated for 72 hrs in presence of paclitaxel (reference value: 392.9+/-196.5 nM); format: functional, cell-based; conditions: KBv200, 72 h
[8] = test system: OVCAR-8; test: Reversal of vinorelbine resistance in human OVCAR-8 cells assessed as reduction in cell viability incubated for 72 hrs in presence of vinorelbine (reference value: 16.2+/-4.7 nM); format: functional, cell-based; conditions: OVCAR-8, 72 h
[9] = test system: K562; test: Reversal of vinorelbine resistance in human K562 cells assessed as reduction in cell viability incubated for 72 hrs in presence of vinorelbine (reference value: 5.9+/-0.2 nM); format: functional, cell-based; conditions: K562, 72 h
[10] = test system: KBv200; test: Induction of apoptosis in human KBv200 cells assessed as increase in cleaved caspase 3 level at 5 uM incubated for 24 hrs by Western blotting analysis; format: functional, cell-based
[11] = test system: KBv200; test: Antitumor activity against human KBv200 cells xenografted in Balb/cA nude mouse assessed as T/C ratio at 8 mg/kg, iv q4d administered for 13 days; format: functional; conditions: time 13 day
[12] = test system: KBv200; test: Induction of apoptosis in human KBv200 cells assessed as increase in cleaved caspase 9 level at 5 uM incubated for 24 hrs by Western blotting analysis; format: functional, cell-based
[13] = test system: KBv200; test: Antitumor activity against human KBv200 cells xenografted in Balb/cA nude mouse assessed as mean tumor volume at 8 mg/kg, iv q4d administered for 13 days; format: functional; conditions: time 13 day
[14] = test system: KBv200; test: Induction of apoptosis in human KBv200 cells assessed as increase in cleaved PARP level at 5 uM incubated for 24 hrs by Western blotting analysis; format: functional, cell-based
[15] = Toxicity in Balb/cA nude mouse xenografted with human KBv200 cells assessed as mortality at 75 mg/kg, ip qd administered for 13 days in presence of vinorelbine; format: organism-based; conditions: in vivo, 312 h, time 13 day
[16] = Toxicity in Balb/cA nude mouse xenografted with human KBv200 cells assessed as changes in body weight at 75 mg/kg, ip qd administered for 13 days in presence of vinorelbine; format: organism-based; conditions: in vivo, 312 h, time 13 day
[17] = test system: KBv200; test: Antitumor activity against human KBv200 cells xenografted in Balb/cA nude mouse assessed as tumor growth inhibition at 8 mg/kg, iv q4d administered for 13 days; format: functional; conditions: KBv200, 312 h, time 13 day
[18] = test system: KBv200; test: Antitumor activity against human KBv200 cells xenografted in Balb/cA nude mouse assessed as mean tumor volume at 8 mg/kg, iv administered as single dose and measured on day 0; format: functional

Row | Compound | Ratio IC50 [1] | pIC50 ([2]; read-out: IC50) | also measured
1 | O=C1CCCCCCCCCCCNC(=O)[C@H](Cc2ccc(O)cc2)NC(=O)/C(c2ccccc2)=C\C=C(\c2ccccc2)CN1 | 130 | 8.75 | 
2 | CC(C)[C@@H]1NC(=O)/C(c2cccc3ccccc23)=C\C=C(\c2ccccc2)CNC(=O)CCCCCCCCCCCNC1=O | 761 | 9.52 | 
3 | C#CC[C@@H]1NC(=O)/C(c2ccccc2)=C\C=C(\c2ccccc2)CNC(=O)CCCCCCCCCCCNC1=O | 63 | 8.44 | 
4 | COc1ccc(/C2=C/C=C(/c3ccccc3)C(=O)N[C@@H](C(C)C)C(=O)NCCCCCCCCCCCC(=O)NC2)cc1 | 148 | 8.81 | 
5 | NCCCC[C@@H]1NC(=O)/C(c2ccccc2)=C\C=C(\c2ccccc2)CNC(=O)CCCCCCCCCCCNC1=O | 0.8 | 6.54 | 
6 | CC(C)[C@@H]1NC(=O)/C(c2ccc(Br)cc2)=C\C=C(\c2ccccc2)CNC(=O)CCCCCCCCCCCNC1=O | 570 | 9.40 | 
7 | NC(=O)CC[C@@H]1NC(=O)/C(c2ccccc2)=C\C=C(\c2ccccc2)CNC(=O)CCCCCCCCCCCNC1=O | 1 | 6.68 | 
8 | CC(=O)N[C@@H]1[C@@H](OC(C)=O)[C@H](OC(C)=O)[C@@H](COC(C)=O)O[C@H]1n1cc(C[C@@H]2NC(=O)/C(c3ccccc3)=C\C=C(\c3ccccc3)CNC(=O)CCCCCCCCCCCNC2=O)nn1 | 0.9 | 6.61 | 
9 | CC(C)[C@H]1NC(=O)/C(c2cccc3ccccc23)=C\C=C(\c2ccccc2)CNC(=O)CCCCCCCCCCCNC1=O | 1291 | 9.68 | 
10 | CC(=O)N[C@@H]1[C@@H](O)[C@H](O)[C@@H](CO)O[C@H]1n1cc(C[C@@H]2NC(=O)/C(c3ccccc3)=C\C=C(\c3ccccc3)CNC(=O)CCCCCCCCCCCNC2=O)nn1 | 1.5 | 6.82 | 
11 | COc1ccc(/C2=C/C=C(/c3ccccc3)CNC(=O)CCCCCCCCCCCNC(=O)[C@H](C(C)C)NC2=O)cc1OC | 63 | 8.44 | 
12 | CC(C)C[C@@H]1NC(=O)/C(c2ccccc2)=C\C=C(\c2ccccc2)CNC(=O)CCCCCCCCCCCNC1=O | 415 | 9.26 | 
13 | O=C1CCCCCCCCCCCNC(=O)CNC(=O)/C(c2ccccc2)=C\C=C(\c2ccccc2)CN1 | 9 | 7.61 | 
14 | O=C1CCCCCCCCCCCNC(=O)[C@H](Cc2ccccc2)NC(=O)/C(c2cccc3ccccc23)=C\C=C(\c2ccccc2)CN1 | 4566 | 10.30 | 
15 | CC(C)[C@@H]1NC(=O)/C(c2ccccc2)=C\C=C(\c2ccccc2)CNC(=O)CCCCCCCCCNC1=O | 50 | 8.34 | 
16 | O=C1CCCCCCCCCCCNC(=O)[C@H](Cc2cn([C@@H]3O[C@H](CO)[C@H](O)[C@H](O)[C@H]3O)nn2)NC(=O)/C(c2ccccc2)=C\C=C(\c2ccccc2)CN1 | 1.6 | 6.85 | 

Row | Compound | Ratio IC50 [1] | pIC50 ([2]; read-out: IC50) | also measured
17 | COc1ccc(CCN(C)CCCC(C#N)(c2ccc(OC)c(OC)c2)C(C)C)cc1OC (stereo not drawn) [VERAPAMIL] | 33 |  | pIC50 [3]: 6.84; pIC50 [4]: 6.54; pIC50 [5]: 6.35; pIC50 [6]: 8.36; pIC50 [7]: 7.74; pIC50 [8]: 8.07; pIC50 [9]: 8.37; pIC50 [2]: 8.16
18 | CC(C)[C@@H]1NC(=O)/C(c2ccccc2)=C/C=C(/c2ccccc2)CNC(=O)CCCCCCCNC1=O | 5 | 7.33 | 
19 | CC(C)[C@H](NC(=O)/C(=C/C=C(/CNC(=O)CCCCCCCCCCCN)c1ccccc1)c1ccccc1)C(=O)O | 1.1 | 6.70 | 
20 | CC(C)[C@@H]1NC(=O)/C(c2ccccc2)=C\C=C(\c2ccccc2)CNC(=O)CCCCCCCCCCCNC1=O | 192 | 8.92 | 
21 | CCC1=C[C@@H]2CN(C1)Cc1c([nH]c3ccccc13)[C@@](C(=O)OC)(c1cc3c(cc1OC)N(C)[C@H]1[C@@](O)(C(=O)OC)[C@H](OC(C)=O)[C@]4(CC)C=CCN5CC[C@]31[C@@H]54)C2 [VINORELBINE] |  |  | Activity [10]: inactive; T/C [11]: 82%; Activity [12]: inactive; Activity [13]: 1727.4 mm3; Activity [14]: inactive; Activity [15]: Non-Toxic; Activity [16]: Non-Toxic; inhibition in vivo at 8 mg/kg [17]: 18%; Activity [18]: 122.3 mm3
22 | COc1ccc(/C2=C/C=C(/c3ccccc3)CNC(=O)CCCCCCCCCCCNC(=O)[C@H](C(C)C)NC2=O)cc1 | 519 | 9.36 | 
23 | CC(C)[C@@H]1NC(=O)/C(c2ccccc2)=C\C=C/CNC(=O)CCCCCCCCCCCNC1=O | 61 | 8.42 | 
24 | O=C1CCCCCCCCCCCNC(=O)[C@H](Cc2cn([C@@H]3O[C@H](CO)[C@@H](O)[C@H](O)[C@H]3O)nn2)NC(=O)/C(c2ccccc2)=C\C=C(\c2ccccc2)CN1 | 1.3 | 6.77 | 
25 | CC(C)[C@@H]1NC(=O)C(c2ccccc2)CCC(c2ccccc2)CNC(=O)CCCCCCCCCCCNC1=O (stereo partly drawn) | 64 | 8.45 | 
26 | O=C1CCCCCCCCCCCNC(=O)[C@H](Cc2c[nH]c3ccccc23)NC(=O)/C(c2ccccc2)=C\C=C(\c2ccccc2)CN1 | 2 | 6.85 | 
27 | O=C1CCCCCCCCCCCNC(=O)[C@H](Cc2ccccc2)NC(=O)/C(c2ccccc2)=C\C=C(\c2ccccc2)CN1 | 601 | 9.42 | 
28 | CC(C)[C@@H]1NC(=O)/C(c2ccccc2)=C\C=C(\c2ccccc2)CNC(=O)CCOCCOCCOCCNC1=O | 1.8 | 6.90 | 
29 | CSCC[C@@H]1NC(=O)/C(c2ccccc2)=C\C=C(\c2ccccc2)CNC(=O)CCCCCCCCCCCNC1=O | 184 | 8.91 | 
30 | CC(C)[C@@H]1NC(=O)/C(c2ccccc2)=C\C=C(\c2ccc(F)cc2)CNC(=O)CCCCCCCCCCCNC1=O | 543 | 9.38 | 
31 | CC(C)C1NC(=O)/C(c2ccccc2)=C\C=C(\c2ccccc2)CNC(=O)CCCCCCCCCCCNC1=O (stereo not drawn) | 202 | 8.95 | 
32 | O=C1CCCCCCCCCCCNC(=O)[C@@H]2CCCN2C(=O)/C(c2ccccc2)=C\C=C(\c2ccccc2)CN1 | 26 | 8.06 | 
